Here are results for two molecules from patent US20250032525A1 (priority 2021, published 2025).

For one data set, the system named is HL-60(TB). The note with it: NCI-60 database, sulforhodamine B, read-out: Cytotoxic IC50; cited from earlier work.
Another data set deals with T-47D. The note with it: NCI-60 database, sulforhodamine B, read-out: Cytotoxic IC50; cited from earlier work.
In data set [1] the test system is HCT-15. The following applies: HCT-15, NCI-60 database, sulforhodamine B; read-out: Cytotoxic IC50; cited from earlier work.
The next data set has as its system HCT-116. The note with it: HCT-116, NCI-60 database, sulforhodamine B; read-out: Cytotoxic IC50; cited from earlier work.
Another data set deals with RXF 393. The note with it: RXF 393, NCI-60 database, sulforhodamine B; read-out: Cytotoxic IC50; cited from earlier work.
In another data set the test system is CAKI-1. The following applies: CAKI-1, NCI-60 database, sulforhodamine B; read-out: Cytotoxic IC50; cited from earlier work.
In a further data set the test system is SW-620. The following applies: SW-620, NCI-60 database, sulforhodamine B; read-out: Cytotoxic IC50; cited from earlier work.
Another data set relates to PANC-1. The following applies: PANC-1, from Varbanov et al. (2017), PrestoBlue; read-out: Cytotoxic IC50; cited from earlier work.
Another data set has as its system MALME-3M. The following applies: NCI-60 database, sulforhodamine B, read-out: Cytotoxic IC50; cited from earlier work.
In a further data set the test system is KM12. The following applies: KM12, NCI-60 database, sulforhodamine B; read-out: Cytotoxic IC50; cited from earlier work.
The test system of the next data set is 4T1-LUC mammary tumor. Put plainly: Mouse 4T1 breast cancer model. It is filed as in vivo, BALB/c mice. The following applies: 1 mg/kg LiPyDau, 5 mg/kg DOX, day 12 and 24; endpoint day 33. How it is done:
Mouse melanoma (B16), lung (Lewis lung carcinoma, LLC) and breast (4T1-LUC) cancer cell lines were used to establish allograft tumors for drug testing. 5×10^5 B16 or 2×10^5 LLC cells were inoculated subcutaneously in 200 μl serum-free culture media. 4T1-LUC tumors were established by injecting 1×10^6 cells in 20 μl serum-free culture media through the nipple directly to the breast tissue of 8 weeks old BALB/c mice on day 0). […] For the B16, LLC and 4T1-LUC tumor models 4, 6 and 6 mice were treated with LiPyDau while 4, 3 and 6 animals were in the saline treated groups, respectively.
Growth of 4T1-LUC tumor was monitored by bioluminescence imaging. Images were taken 10 minutes after tail vein injection of 150 mg/kg dose of D-luciferin into the mouse.

The next data set deals with HCC-2998. The note with it: HCC-2998, NCI-60 database, sulforhodamine B; read-out: Cytotoxic IC50; cited from earlier work.
The next data set relates to SK-MEL-2. The note with it: SK-MEL-2, NCI-60 database, sulforhodamine B; read-out: Cytotoxic IC50; cited from earlier work.
The next data set has as its system MCF7. The following applies: MCF7, NCI-60 database, sulforhodamine B; read-out: Cytotoxic IC50; cited from earlier work.
A further data set relates to CCRF-CEM. The note with it: NCI-60 database, sulforhodamine B, read-out: Cytotoxic IC50; cited from earlier work.
For the next data set, the system named is HOP-62. The note with it: HOP-62, NCI-60 database, sulforhodamine B; read-out: Cytotoxic IC50; cited from earlier work.
Data set [2] has as its system HCT-15. Put plainly: In vitro cytotoxicity (PrestoBlue). It is filed as cell-based, human. The following applies: HCT-15, 72 h, read-out: Cytotoxic IC50. The text has this:
(§1) Experiments were repeated at least 3 times.

Another data set deals with HT29. The data set is described as follows: In vitro cytotoxicity (PrestoBlue). In kind it is cell-based, human. The note with it: HT29, 72 h, read-out: Cytotoxic IC50.
Description: as §1

A short description of data set [3]: In vivo toxicity (dose-finding) studies. The note with it: for Mortality (%) / Survival: single iv. Set-up: species or system FVB mice. An excerpt:
PyDau and LiPyDau dose-finding studies were done using 10 weeks old FVB mice, by single intravenous injections of different doses of the compounds (3 mouse/dose) via the tail vein. The status of the mice was monitored daily for signs of pain or discomfort. Mice were euthanized at 20% body weight loss or at a low score (1 or 2) on the Body Condition Scoring scale. Survival was followed for 30 days and the Maximum Tolerable Dose (MTD) was defined as the highest dose where 100% survival was observed.

Data set [4] can be described thus: In vivo toxicity (dose-finding) studies. Further details: species or system FVB mice. The note with it: 0.25 mg/kg given repeatedly, later experiments.
A short description of data set [5]: Storage stability of PyDau. In kind it is physicochemical. The note with it: monomer form, −20° C. As to the method: 2-pyrrolinodoxorubicin (PyDox) TFA salt was developed in 1996 (Nagy A. et al.; Proc. Natl. Acad. Sci. U.S.A. 93 (1996). 2464-2469). In the first step Nagy et al. applied 4-iodobutyraldehyde, that was prepared from 2-(3-chloropropyl)-1,3-dioxolane followed by Shiff-base formation and cyclization. The synthesis of 4-iodobutyraldehyde—which is the key step for efficient synthesis-was later improved by Studenovsky et al. (Eur. J. Pharm. Sci. 42 (2011). 156-163). […] Therefore, a new approach was investigated for the preparation of PyDau. First, the stable and storable 4-bromobutyraldehyde was applied for the synthesis. The reaction was carried out in DCM in the presence of excess DIPEA under nitrogen atmosphere at room temperature (RT) for 10 h.

Where two headings read alike, the source gives them in different places. Where only a bound is given, the exact number is not on record here.

Usually IC50 stands for the concentration that inhibits the measured activity by half. As to `COc1cccc2c1C(=O)c1c(O)c3c(c(O)c1C2=O)C[C@@](O)(C(=O)CO)C[C@@H]3O[C@H]1C[C@H](N)[C@H](O)[C@H](C)O1` [DOX, doxorubicin], the IC50 in the data set on HL-60(TB) is 62.4 nM; in the data set with T-47D, 83 nM; in the data set with HCT-15 [1], 1200 nM; with HCT-116 it was 66.1 nM; in the data set with RXF 393, 160 nM; in the data set on CAKI-1, 190 nM. In addition, the IC50 with SW-620 was 70.1 nM; in the data set on PANC-1 it was 460 nM; with MALME-3M it was 51.9 nM; in the data set with KM12, 223 nM; in the data set with HCC-2998, 181 nM; in the data set on SK-MEL-2, 237 nM. Also, the IC50 with MCF7 is 15.6 nM; in the data set with CCRF-CEM, 37.2 nM; in the data set on HOP-62, 60.4 nM. Besides, the “Tumor growth / tumor cell viability” value with 4T1-LUC mammary tumor is on record as “small but significant effect on the growth of tumors”.
As a reminder, the MTD is the largest dose that counted as tolerated. `COc1cccc2c1C(=O)c1c(O)c3c(c(O)c1C2=O)C[C@@](O)(C(C)=O)C[C@@H]3O[C@H]1C[C@H]2[C@H](OC3CCCN32)[C@H](C)O1` (some centres unmarked) [PyDau, 2-deamino-2-pyrrolino-daunorubicin]: the IC50 in the data set with HCT-15 [2] amounted to 2.42 nM; with HCT-15 [2] (Homo sapiens), 2.86 nM; with HT29, 3.53 nM; in the data set on HT29 (Homo sapiens, HT-29, 72 h), 3.05 nM. Besides, in [3] (3, 2, 1 and 0.5 mg/kg), the Lethality result is reported as “lethal”. In addition, the “Mortality (%)” value in [3] (PyDau dose 0.05 mg/kg) stood at 0%; in data set [3] (PyDau dose 0.1 mg/kg), 0%; in data set [3] (PyDau dose 0.17 mg/kg) it was 0%; in [3] (PyDau dose 0.25 mg/kg), 0%; in data set [3] (PyDau dose 0.5 mg/kg), 100%; in data set [3] (PyDau dose 1 mg/kg), 100%. The “Mortality (%)” value in data set [3] (PyDau dose 2 mg/kg) and in data set [3] (PyDau dose 3 mg/kg) was 100% each time. Besides, the “Survival” value in data set [3] (PyDau dose 0.05 mg/kg) is greater than 30 days; in data set [3] (PyDau dose 0.1 mg/kg) it was greater than 30 days; in data set [3] (PyDau dose 0.17 mg/kg) it was greater than 30 days; in [3] (PyDau dose 0.25 mg/kg), greater than 30 days; in data set [3] (PyDau dose 0.5 mg/kg), 11 days; in data set [3] (PyDau dose 1 mg/kg), 4 days. Moreover, the “Survival” value in data set [3] (PyDau dose 2 mg/kg) and in [3] (PyDau dose 3 mg/kg) was 2 days throughout. Besides, the Safety window entry in data set [3] (dose-finding studies in mice) was “too narrow”. The MTD at 30 days in data set [3] (mouse, in vivo, single intravenous injection, FVB mice, highest dose with 100% survival over 30 days, read-out: Maximum Tolerable Dose (MTD)) came to 0.25 mg/kg. For the same molecule, the “Toxicity when given repeatedly” value in data set [4] is on record as “still toxic”. The Stability on storage entry in data set [5] is “stable for long time”.
